Assay results reported in patent US6441006B2, “Pharmaceutical compositions and methods for use” (Targacept, Inc., priority 1998, dated 2002).

What was measured:
CNS nicotinic receptors [1] = molecular target: T1, CNS nicotinic receptors (Rattus norvegicus, UniProt P09483+P12390); experiment: Binding to relevant receptor sites; conditions: calculated from IC50 values using the method of Cheng et al.
T1 construct: Ki
Method: Binding of the compounds to relevant receptor sites was determined in accordance with the techniques described in U.S. Pat. No. 5,597,919 to Dull et al. Inhibition constants (Ki values), reported in nM, were calculated from the IC50 values using the method of Cheng et al., Biochem, Pharmacol. 22:3099 (1973).

[2] = molecular target: T2, muscle-type nicotinic acetylcholine receptors (Homo sapiens, UniProt P02708+P07510+Q07001); experiment: Interaction with muscle receptors; type: cell-based; conditions: relative to (S)-(-)-nicotine
T2 construct: endogenous in cells; host or cells: TE671/RD (own knowledge of the cited US 5,597,919)
Method: (§1) The determination of the interaction of the compounds with muscle receptors was carried out in accordance with the techniques described in U.S. Pat. No. 5,597,919 to Dull et al. The maximal activation for individual compounds (Emax) was determined as a percentage of the maximal activation induced by (S)-(−)-nicotine. Reported Emax values represent the amount released relative to (S)-(−)-nicotine on a percentage basis. […] Such preferable compounds have the capability to activate human CNS receptors without activating muscle-type nicotinic acetylcholine receptors. Thus, there is provided a therapeutic window for utilization in the treatment of CNS disorders. […] The compounds begin to cause muscle effects only when employed in amounts of many times those required to activate dopamine release.

[3] = system: ganglia-type nicotinic acetylcholine receptors; experiment: Interaction with ganglion receptors; type: cell-based; conditions: relative to (S)-(-)-nicotine
Method: as §1, with “ganglionic” for “muscle”, “ganglia-type” for “muscle-type”, “cause” for “cause muscle”, “effects at ganglia” for “effects”
The determination of the interaction of the compounds with ganglionic receptors was carried out in accordance with the techniques described in U.S. Pat. No. 5,597,919 to Dull et al. The maximal activation for individual compounds (Emax) was determined as a percentage of the maximal activation induced by (S)-(−)-nicotine. Reported Emax values represent the amount released relative to (S)-(−)-nicotine on a percentage basis.

dopamine release = experiment: Dopamine release; type: biochemical
Method: Dopamine release was measured using the techniques described in U.S. Pat. No. 5,597,919 to Dull et al. Release is expressed as a percentage of release obtained with a concentration of (S)-(−)-nicotine resulting in maximal effects. Reported EC50 values are expressed in nM, and Emax values represent the amount released relative to (S)-(−)-nicotine on a percentage basis.

CNS nicotinic receptors [4] = molecular target: T3, CNS nicotinic receptors; experiment: Rubidium release; type: biochemical
T3 construct: Emax, rubidium release; other: relative to 300 uM tetramethylammonium ion
Method: Rubidium release was measured using the techniques described in Bencherif et al., JPET, 279: 1413-1421 (1996). Reported EC50 values are expressed in nM, and Emax values represent the amount of rubidium ion released relative to 300 uM tetranmethylammonium ion, on a percentage basis.

laboratory rats = experiment: Step-through passive avoidance, scopolamine induced amnesia; type: in vivo, rat; conditions: 0.3 to 3 umol/kg subcutaneous, 0.5 umol/kg scopolamine
Method: A Gemini Avoidance System (San Diego Instruments) were used to evaluate animals in a passive avoidance experiment. During the period of habituation, laboratory rats received a subcutaneous injection of saline. On the acquisition day, each rat received a subcutaneous injection of 0.5 umol/kg scopolamine (or saline in the case of the vehicle control group) 30 minutes prior to being placed in the chambers. Five minutes following scopolamine injection, (or 25 minutes before being placed in the chamber), each rat was administered a subcutaneous injection with one of four doses of the compound. Thirty minutes following the scopolamine or vehicle injection, each rat was placed in the brightly illuminated chamber, facing away from the sliding door. After 10 seconds, the door separating the chambers opened allowing access to the dark chamber. The time to enter the dark chamber was measured. Immediately upon entering the dark chamber, the rat received a mild foot shock (0.5 mAmp) for 2 seconds. Twenty four hours following training, each rat was placed in the light chamber facing away from the sliding door. […] Statistical differences in latencies (latency during acquisition and retention trials) were analyzed by Kruskal-Wallis one-way analysis of variance on ranks followed by the either of two-tailed Mann-Whitney U-test or Newman-Keuls analog test if values of p less than 0.05 were obtained. […]

T1 sequence (P09483 31-630): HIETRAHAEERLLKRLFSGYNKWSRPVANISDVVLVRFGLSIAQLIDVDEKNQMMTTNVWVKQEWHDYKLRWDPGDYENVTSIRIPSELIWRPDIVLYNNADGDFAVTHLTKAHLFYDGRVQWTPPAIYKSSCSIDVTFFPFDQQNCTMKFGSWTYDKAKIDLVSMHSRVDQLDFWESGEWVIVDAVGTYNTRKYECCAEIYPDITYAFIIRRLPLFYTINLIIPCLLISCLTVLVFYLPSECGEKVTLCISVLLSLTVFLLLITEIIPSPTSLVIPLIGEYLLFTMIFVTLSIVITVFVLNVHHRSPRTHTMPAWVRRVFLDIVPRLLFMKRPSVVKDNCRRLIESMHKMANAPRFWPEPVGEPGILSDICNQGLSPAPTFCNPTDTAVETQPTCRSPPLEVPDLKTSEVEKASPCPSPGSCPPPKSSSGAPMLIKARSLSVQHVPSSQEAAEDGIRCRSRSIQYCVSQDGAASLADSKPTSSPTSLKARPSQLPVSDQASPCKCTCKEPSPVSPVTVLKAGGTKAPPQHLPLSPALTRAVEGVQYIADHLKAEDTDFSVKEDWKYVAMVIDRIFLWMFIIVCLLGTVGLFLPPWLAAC
T1 sequence (P12390 25-500): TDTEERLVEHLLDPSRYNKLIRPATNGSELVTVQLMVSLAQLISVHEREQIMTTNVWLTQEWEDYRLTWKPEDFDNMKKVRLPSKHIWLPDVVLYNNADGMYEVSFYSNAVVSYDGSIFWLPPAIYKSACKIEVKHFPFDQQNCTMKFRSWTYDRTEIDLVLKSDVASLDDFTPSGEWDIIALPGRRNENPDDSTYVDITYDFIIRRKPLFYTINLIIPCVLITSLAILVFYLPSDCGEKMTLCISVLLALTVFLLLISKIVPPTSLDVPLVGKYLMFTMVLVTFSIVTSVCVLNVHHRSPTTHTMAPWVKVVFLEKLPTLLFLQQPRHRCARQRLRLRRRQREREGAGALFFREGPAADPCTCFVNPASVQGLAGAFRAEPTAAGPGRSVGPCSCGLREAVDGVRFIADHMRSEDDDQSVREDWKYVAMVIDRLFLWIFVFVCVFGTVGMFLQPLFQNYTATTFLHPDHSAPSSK
T2 sequence (P02708 21-457): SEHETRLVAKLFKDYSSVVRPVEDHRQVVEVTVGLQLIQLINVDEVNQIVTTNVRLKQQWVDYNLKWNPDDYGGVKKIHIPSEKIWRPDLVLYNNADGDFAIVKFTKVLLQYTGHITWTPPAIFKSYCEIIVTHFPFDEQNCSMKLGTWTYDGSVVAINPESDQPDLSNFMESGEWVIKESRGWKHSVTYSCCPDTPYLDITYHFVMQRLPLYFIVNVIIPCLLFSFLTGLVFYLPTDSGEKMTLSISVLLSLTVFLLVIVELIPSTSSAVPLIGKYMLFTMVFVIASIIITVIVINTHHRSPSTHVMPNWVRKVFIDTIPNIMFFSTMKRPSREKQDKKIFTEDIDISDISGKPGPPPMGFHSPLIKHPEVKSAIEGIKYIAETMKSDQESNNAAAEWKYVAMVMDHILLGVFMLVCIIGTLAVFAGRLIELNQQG
T2 sequence (P11230 24-501 partner): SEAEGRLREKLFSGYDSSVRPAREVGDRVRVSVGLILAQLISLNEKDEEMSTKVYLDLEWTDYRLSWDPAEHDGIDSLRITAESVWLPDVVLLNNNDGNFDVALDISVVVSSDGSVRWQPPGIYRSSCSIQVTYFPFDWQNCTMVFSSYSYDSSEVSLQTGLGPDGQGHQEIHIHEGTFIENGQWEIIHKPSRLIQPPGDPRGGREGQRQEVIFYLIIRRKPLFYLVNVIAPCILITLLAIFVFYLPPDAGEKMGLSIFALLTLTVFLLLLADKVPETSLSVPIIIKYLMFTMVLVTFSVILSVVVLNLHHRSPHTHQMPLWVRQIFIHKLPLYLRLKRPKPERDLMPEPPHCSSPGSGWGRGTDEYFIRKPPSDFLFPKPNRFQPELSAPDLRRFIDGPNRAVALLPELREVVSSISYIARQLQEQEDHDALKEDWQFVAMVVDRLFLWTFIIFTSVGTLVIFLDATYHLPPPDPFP
T2 sequence (Q07001 22-517): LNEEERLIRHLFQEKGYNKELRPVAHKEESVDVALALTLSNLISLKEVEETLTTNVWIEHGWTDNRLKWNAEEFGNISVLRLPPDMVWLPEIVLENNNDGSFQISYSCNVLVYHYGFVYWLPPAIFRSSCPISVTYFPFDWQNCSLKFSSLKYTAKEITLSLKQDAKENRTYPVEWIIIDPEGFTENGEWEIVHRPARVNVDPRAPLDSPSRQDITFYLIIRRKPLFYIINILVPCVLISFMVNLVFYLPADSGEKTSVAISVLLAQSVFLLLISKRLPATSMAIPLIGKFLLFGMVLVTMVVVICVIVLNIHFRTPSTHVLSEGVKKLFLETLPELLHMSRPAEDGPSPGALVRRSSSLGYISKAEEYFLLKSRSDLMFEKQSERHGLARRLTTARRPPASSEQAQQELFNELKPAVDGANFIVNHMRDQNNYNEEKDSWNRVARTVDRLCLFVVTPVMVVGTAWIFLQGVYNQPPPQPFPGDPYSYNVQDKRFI
T2 sequence (P07510 23-517): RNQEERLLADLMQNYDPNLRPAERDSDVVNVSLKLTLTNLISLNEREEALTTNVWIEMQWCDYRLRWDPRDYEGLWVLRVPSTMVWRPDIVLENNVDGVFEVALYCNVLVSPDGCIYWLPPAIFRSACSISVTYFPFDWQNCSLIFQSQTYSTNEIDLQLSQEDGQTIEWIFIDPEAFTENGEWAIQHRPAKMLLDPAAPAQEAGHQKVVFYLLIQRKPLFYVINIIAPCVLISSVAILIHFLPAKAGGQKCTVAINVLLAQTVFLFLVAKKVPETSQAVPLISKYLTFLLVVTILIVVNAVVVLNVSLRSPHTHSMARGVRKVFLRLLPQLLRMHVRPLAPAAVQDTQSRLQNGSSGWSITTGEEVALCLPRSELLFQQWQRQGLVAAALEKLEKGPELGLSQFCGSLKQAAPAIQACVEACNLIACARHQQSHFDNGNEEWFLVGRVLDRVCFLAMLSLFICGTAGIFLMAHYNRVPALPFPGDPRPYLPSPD

## (3-(3-Pyridyloxy)propyl)methylamine Hemigalactarate [Example 5]
CNS nicotinic receptors [1]
  Ki: 13 nM
[2]
  Emax at muscle-type receptors: 0%
[3]
  Emax at ganglionic-type receptors: 93%
Dopamine release
  EC50: 369 nM
Dopamine release; amount released relative to (S)-(-)-nicotine
  Emax, dopamine release: 96%
CNS nicotinic receptors [4]
  EC50: 960 nM
CNS nicotinic receptors [4]; relative to 300 uM tetramethylammonium ion
  Emax, rubidium release: 83%
Laboratory rats
  reversal of scopolamine induced amnesia: significant reversal of scopolamine induced amnesia
